# Measurements as given in US6808930B1, “Therapeutic agents” (priority 1997, dated 2004).
# Test system: L1210, A549 and HRTEC nuclei
# Experiment: DNA fragmentation in isolated nuclei
# Assay type: cell-based
# Details: L1210 and A549 nuclei incubated with Ca2+ inhibitors
# Description: Nuclei were purified from L1210, A549 and HRTEC cells and incubated with low concentrations of MAL (0.2 and 0.4 mg/ml). The formation of HMW and oligonucleosome length DNA fragments was examined.
# A549, L1210 and HRTEC nuclei were isolated from homogenised cells. Pellet 1 from the homogenisation was washed twice in nuclei buffer for 20 min at 100×g and suspended in nuclei buffer for experiments. Rat liver nuclei was isolated.
# A549, L1210 or HRTEC nuclei in suspension were placed in individual wells in a 24-well plate ([…]), mixed with MAL, α-lactalbumin, lactoferrin or BSA (100 μl in nucleus buffer), incubated at 37° C. for 1 hour (L1210,) or 2 hours (A549 and HRTEC), harvested by aspiration, analysed for DNA fragmentation as described above.
row,Structure (SMILES),effect on MAL induced DNA fragmentation
1,"O=C(O)CN(CCN(CC(=O)O)CC(=O)O)CC(=O)O [EDTA, reference compound]",completely blocked the DNA fragmentation
2,"CC(=O)OCOC(=O)CN(CC(=O)OCOC(C)=O)c1ccccc1OCCOc1ccccc1N(CC(=O)OCOC(C)=O)CC(=O)OCOC(C)=O [BAPTA/AM, reference compound]",completely blocked the DNA fragmentation
